Assay results from patent US5641659A, “α-l-rhamnosidase for obtaining rhamnose, a process for its preparation and its use” (priority 1992, dated 1997).

System: α-L-rhamnosidase from Penicillium sp. DSM 6826
Experiment: Influence of different substances on the activity of the purified α-L-rhamnosidase
Format: biochemical
Conditions: control = 100
Description: p-Nitrophenyl-α-L-rhamnopyranoside is used as the substrate for detecting the α-L-rhamnosidase activity. 10 mg of this substrate are dissolved in 10 ml of ammonium acetate buffer (pH 5.5, 50 mM). 100 μl of culture filtrate or cell lysates are added to 900 μl of this solution and the mixture is then incubated at 40° C. After 0, 3, 6, 9 and 12 minutes, 200 μl are removed and mixed with 800 μl of 200 mM borate buffer, pH 9. The release-of p-nitrophenol is monitored photometrically at 410 nm; naringinase (following Romero et al. Anal. Biochem. 149 566-571 (1985)) was used as the control.
The investigations summarized in the table below were carried out using the purified enzyme.

For `[Cl-].[Cs+]` [CsCl], the “% activity” value (substance at 2 mM) was 96%.

For `C[C@@H]1OC(O)[C@H](O)[C@H](O)[C@H]1O` (single isomer, unassigned) [L-Rhamnose, 6-deoxy-L-mannose], the “% activity” value (substance at 0.5 M) was 51%, the “% activity” value (substance at 1.0 M) was 39.5% and the “% activity” value (substance at 1.5 M) was 26.4%.

For `[Ca+2].[Cl-].[Cl-]` [CaCl2], the “% activity” value (substance at 20 mM) was 127%.

With `[Cl][Mn][Cl]` [MnCl2] the “% activity” value (substance at 2 mM) was 27%.

For `[Cl-].[Cl-].[Zn+2]` [ZnCl2], the “% activity” value (substance at 2 mM) was 65%.

With `[Cl][Cu][Cl]` [CuCl2] the “% activity” value (substance at 0.5 mM) was 40%.

For `O=S(=O)([O-])[O-].[Mg+2]` [MgSO4], the “% activity” value (substance at 2 mM) was 106%.

`[Cl-].[Cl-].[Co+2]` [CoCl2] was tested, and the “% activity” value (substance at 2 mM) was 41%.

For `O=C(O)CN(CCN(CC(=O)O)CC(=O)O)CC(=O)O` [EDTA, reference compound], the “% activity” value (substance at 10 mM) was 22%.

With `[Cl-].[K+]` [KCl] the “% activity” value (substance at 100 mM) was 69%.

`O=C(O)CN(CCOCCOCCN(CC(=O)O)CC(=O)O)CC(=O)O` [EGTA, reference compound] was tested, and the “% activity” value (substance at 10 mM) was 60%.

`O=S(=O)([O-])[O-].[Fe+2]` [FeSO4] was tested, and the “% activity” value (substance at 0.5 mM) was 100%.
